Measurements reported in publication PMC7531004, “Discovery of gramicidin A analogues with altered activities by multidimensional screening of a one-bead-one-compound library” (Nature Communications, 2020).
Values joined by “and” are separate entries in the source; they are usually repeats but may differ in a detail not shown here. Equal values may be shown once. Read-outs that look alike come from different tables or passages of the source. Where a SMILES comes first, the peptide text is derived from it. [ ]: non-standard residue; d: D form. The star is where a group is joined. NHCH2CH2OH = OCCN*; For = O=C*

Experiments:
[1] = H+/Na+ transport assay of purified peptides; settings: for Supplementary Figure 5 dose-response value (H+/Na+ transport): three replicate lines
Procedure: First, we evaluated the ion channel function of 1 using liposomes. To mimic a negatively charged Gram-positive bacterial membrane, the liposomes were prepared as large unilamellar vesicles (LUVs) comprising a 19:1 mixture of egg yolk phosphatidylcholine (EYPC) and egg yolk phosphatidylglycerol (EYPG)[57]. Pyranine, a pH-dependent fluorescent dye[58], was encapsulated in the LUVs and a pH gradient was applied across the membrane. H^+/Na^+ transport induced by a peptide was monitored by changes in the fluorescence intensity of pyranine.

rabbit red blood cells = settings: red cells of rabbit, 2 h
Procedure: Second, we examined the cytotoxicity toward mammalian cancer cells and hemolytic activity of 1. […] Hemolytic activity was evaluated by monitoring hemoglobin leakage from rabbit red blood cells as a consequence of membrane damage. The concentration of 1 required to cause 10% hemoglobin leakage (HC10) was 160 nM. Thus, the P388 cytotoxicity of 1 was 28-fold more sensitive than its hemolytic activity.
Hemolysis assay of purified peptides. […]
with DMSO to various concentrations as 3-fold serial dilution. A 50% suspension of rabbit blood in Alsever's solution was obtained from Nippon Bio -Supp. Center . The blood suspension (250 µL) w as diluted with phosphate buffered saline (no calcium, no magnesium, 1.00 mL). The resultant suspension was centrifuged at 1000 × g for 3 min at 8 °C. The supernatant was discarded, and the collected cells were resuspended in phosphate buffered saline (no calcium, no magnesium, 1.00 mL). The same procedure was repeated (× 3). The resultant suspension (100 µL) was diluted with phosphate buffered saline (no calcium, no magnesium, 4.90 mL) to give 0.2% red blood cells suspension. The 0.2% red blood cells suspension (95.0 µL) and each dilution series of the purified peptide in DMSO (5 .0 µL) were mixed in 2 mL microtube.
supernatant was transferred to a 96-well plate (TR5003, TrueLine). The absorbance of each well at 415 nm was measured using a Thermo Scientific Multiskan GO (Thermo Fisher Scientific). The mixture of Triton X-100/H2O (5/95, 2.0 µL), DMSO (5.0 µL), and the 0.2% red blood cells suspension (95.0 µL) was used to determine 100% hemolysis. The mixture of DMSO (5.0 µL) and the 0.2% red blood cells suspension (95.0 µL) was used to determine 0% hemolysis. The hemolytic activities of tested peptides ( I) were normalized against 100% hemolysis by Triton X -100 (Imax) and 0% hemolysis by DMSO (I0) according to Supplementary Equation 3, where Ix is the UV absorbance.
I = 100 × (Ix – I0) / (Imax – I0) (3)
The hemolytic activities of the purified peptides were evaluated as the concentrations causing 10% hemolysis (HC10, nM) by means of three replicates. Sigmoidal curve fittings were performed on GraphPad Prism (GraphPad software, Supplementary Figure 7).

[2] = test system: Streptococcus pyogenes SSI-9; test: Antibacterial activity assay of bead-derived peptides (three concentrations); type: cell-based; design: key: +++: inhibition by the 640-fold diluted peptide solution; ++: inhibition by the 160-fold diluted solution; +: inhibition by the 40-fold diluted solution; -: no inhibition; settings: S. pyogenes
Outline: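 Undiluted, 4-fold and 16-fold DMSO-diluted peptide stocks; S. pyogenes SSI-9, 2 × 10^5 CFU, cation-adjusted MHB (50 mg/L Ca2+, 25 mg/L Mg2+) + 5% laked horse blood; 37 °C, 18 h; readout = cell pellet visible or not.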

[3] = read-out: EC50, H+/Na+ transport assay, 1st experiment
[4] = read-out: EC50, H+/Na+ transport assay, 2nd experiment
[5] = read-out: EC50, H+/Na+ transport assay, 3rd experiment
[6] = read-out: H+/Na+ transport activity EC50, EYPC/EYPG (19:1) LUVs
[7] = read-out: H+/Na+ transport activity/EC50, mean ± SD of three independent experiments

EC50 [1, 3]	EC50 [1, 4]	EC50 [1, 5]	EC50 [1, 6]	EC50 [1, 7]	Structure (SMILES)	Supplementary Figure 5 dose-response value (H+/Na+ transport) ([1]; concentration 0.000512 nM)	Supplementary Figure 5 dose-response value (H+/Na+ transport) ([1]; concentration 0.00256 nM)	Supplementary Figure 5 dose-response value (H+/Na+ transport) ([1]; concentration 0.0128 nM)	Supplementary Figure 5 dose-response value (H+/Na+ transport) ([1]; concentration 0.064 nM)	Supplementary Figure 5 dose-response value (H+/Na+ transport) ([1]; concentration 0.32 nM)	Supplementary Figure 5 dose-response value (H+/Na+ transport) ([1]; concentration 1.6 nM)	Supplementary Figure 5 dose-response value (H+/Na+ transport) ([1]; concentration 8 nM)	Supplementary Figure 5 dose-response value (H+/Na+ transport) ([1]; concentration 40 nM)	Supplementary Figure 5 dose-response value (H+/Na+ transport) ([1]; concentration 200 nM)	Supplementary Figure 5 dose-response value (H+/Na+ transport) ([1]; concentration 1000 nM)	Supplementary Figure 5 dose-response value (H+/Na+ transport) ([1]; concentration 5000 nM)	Hemolytic activity HC10 (concentration causing 10% hemolysis) (rabbit red blood cells)	antibacterial activity in the library screening [2]
1.9 nM	3.5 nM	1.99 nM	2.5 nM	2.46 ± 0.9 nM	CC(C)C[C@@H](NC(=O)[C@H](Cc1c[nH]c2ccccc12)NC(=O)[C@@H](CC(C)C)NC(=O)[C@H](Cc1c[nH]c2ccccc12)NC(=O)[C@@H](CC(C)C)NC(=O)[C@H](Cc1c[nH]c2ccccc12)NC(=O)[C@H](NC(=O)[C@@H](NC(=O)[C@H](NC(=O)[C@H](C)NC(=O)[C@H](NC(=O)[C@H](C)NC(=O)CNC(=O)[C@@H](NC=O)C(C)C)C(C)C)C(C)C)C(C)C)C(C)C)C(=O)N[C@@H](Cc1c[nH]c2ccccc12)C(=O)NCCO [A1] (For-VGA[dV]A[dV]V[dV]W[dL]W[dL]W[dL]W-NHCH2CH2OH)	1.8002 and 1.763 and 1.206	3.307 and 4.634 and 1.407	5.867 and 6.44 and 5.481	6.841 and 9.002 and 6.572	16.8499 and 16.683 and 16.1323	35.8143 and 34.663 and 30.2235	59.1193 and 56.2604 and 57.9939	69.1281 and 68.6879 and 67.3822	71.9954 and 72.6939 and 69.0451	75.1932 and 74.1998 and 72.8534	74.4116 and 69.1356 and 72.7894	240 nM	+++
1.77 nM	1.01 nM	1.18 nM	1.3 nM	1.32 ± 0.4 nM	CC(C)C[C@@H](NC(=O)[C@H](C)NC(=O)CNC(=O)[C@@H](NC=O)C(C)C)C(=O)N[C@@H](C)C(=O)N[C@@H](C(=O)N[C@H](C(=O)N[C@@H](C(=O)N[C@@H](Cc1c[nH]c2ccccc12)C(=O)N[C@@H](C(=O)N[C@@H](Cc1c[nH]c2ccccc12)C(=O)N[C@@H](C(=O)N[C@@H](Cc1c[nH]c2ccccc12)C(=O)N[C@@H](C(=O)N[C@@H](Cc1c[nH]c2ccccc12)C(=O)NCCO)C(C)C)C(C)C)C(C)C)C(C)C)C(C)C)C(C)C [B03] (For-VGA[dL]A[dV]V[dV]W[dV]W[dV]W[dV]W-NHCH2CH2OH)	3.426 and 4.542 and 4.454	4.063 and 4.369 and 6.1349	8.086 and 3.88 and 7.199	11.12 and 10.2864 and 11.0165	19.1274 and 20.4439 and 18.4811	44.4719 and 42.2282 and 45.2028	70.1046 and 68.0194 and 61.5034	68.5122 and 68.0449 and 67.6654	74.8622 and 71.9344 and 68.9589	72.6177 and 71.4474 and 69.5798	79.6141 and 83.2523 and 73.0858	2000 nM	
